“Also recorded” adds a separate entry of the source.
Assays:
[1] = biological target: T1, Nurr1-LBD_Gal4-DBD chimeric protein (Homo sapiens, UniProt P43354); assay: Nurr1-LBD_Gal4-DBD luciferase reporter assay in MN9D cells; type: cell-based; details: 6 h treatment
T1 construct: prepared by subcloning the Nurr1 LBD fragment into […] plasmid (Clontech) containing GAL4 DBD; expressed in transfected cells; host or cells: MN9D TET-ON cells
Method: (§1) Luciferase Reporter Assays. These assays were executed using standard protocols. MN9D TET-ON cells (P5) were grown for 60-72 h (see above) before being seeded at 1-10^5 cell/well in 24-well plate in DMEM/F12+5% TET-ON approved FBS 3 h before transfection. Cells were transfected using Lipofectamine 2000 (Invitrogen) and plasmid DNAs according to manufacturer's instructions. Lipofectamine/DNA complexes were prepared in Opti-Mem medium (Gibco) and incubated with cells overnight. The Nurr1-LBD_Gal4-DBD expressing plasmid was prepared by subcloning the Nurr1 LBD fragment into […] plasmid (Clontech) containing GAL4 DBD. […] Transfected cells were treated with increasing concentrations of 5-chloroindole or vehicle only for 6 h, after which time the media was aspirated and luciferase activity was measured. […] Resulting solutions were transferred to a white opaque 96-well plate (65 μL/well; 3 wells/sample) and firefly luciferase activity was measured using Veritas Microplate Luminometer (Turner BioSystems, Sunnyvale, Calif.). […] Renilla luciferase activity was measured after 20 min of incubation of the plate inside the luminometer. Experimental values are expressed as the average of firefly/renilla luciferase activity±standard deviation (for three independent biological replicates). […]

[2] = Dynamic light scattering assay of nano-aggregation; type: physicochemical; details: MST buffer with Pluronic F127
Method: Measurements were made using a DynaPro MS/X (Wyatt Technology) with a 55 mW laser at 826.6 nm, using a detector angle of 90°. The laser power was 100%, and the acquisition time was 2 s. Histograms represent the average of three independent data sets, each with at least 10 measurements.

[3] = biological target: T2, full-length Nurr1 (NBRE response element) (Mus musculus, UniProt Q06219); assay: Full-length Nurr1 NBRE luciferase reporter assay in MN9D cells; type: cell-based; details: 6 h treatment
T2 construct: a cell line derived from dopaminergic neurons which endogenously expresses full length Nurr1 and its target genes; endogenous in cells; host or cells: MN9D TET-ON cells
Method: as §1, with “DBD. The reporter plasmid pGL4.35 (luc2P/9XGAL4 UAS/Hygro) Vector (Promega) contains nine repeats of GAL4 UAS (Upstream Activator Sequence) and drives transcription of the luciferase reporter gene luc2P in response to binding of Nurr-LBD_Gal4-DBD chimeric protein. The pRL-null (Promega) plasmid expressing renilla luciferase was used as an internal control. […] Alternatively, cells were co-transfected with the reporter plasmid NBREx3-POMC-Luc containing three copies of the NBRE sequence ([NT] ID NO:23)) subcloned into the pXP1-luc plasmid containing the minimal (positions -34 to +63) POMC promoter as described previously^7, and the pRL-null plasmid.” for “DBD.”, “measured. Cells from each well were incubated for 15 min with 220 μL/well of Dual-Glo® Luciferase Reagent (Promega) at room temperature upon rotation on the orbital shaker.” for “measured.”

[4] = system: Nurr1 (siRNA knockdown) in MN9D cells; assay: Nurr1 knockdown (siRNA) assay with qPCR of target genes in MN9D cells; type: cell-based, mouse; details: 10 μM, 24 h, Nurr1 siRNA vs control siRNA
Method: Nurr1 knockdown (siRNA) assays were completed according to standard protocols. Briefly, MN9D cells were resuspended in DMEM/F-12 with 5% FBS at 1·10^6 cells/mL, and reverse-transfected with either control or Nurr1 siRNAs (40 nM final concentration) by combining 4 mL of cell suspension with 1 mL of Opti-MEM containing 200 nM siRNA and 10 μL Lipofectamine 2000 (Invitrogen, cat #:11668019). The resulting cell suspension was plated on poly-D-lysine treated six-well plates at 2.5 mL/well, and allowed to incubate for 24 h at 37° C., in 5% CO2 incubator. After 24 hours, the cells were trypsinized, resuspended in DMEM/F-12 with 5% FBS at 2·10^5 cells/mL, mixed with equal volume of 20 μM 5-chloroindole in the same media containing 0.2% DMSO (prepared by diluting DMSO stock of 5-chloroindole (10 mM) in warm DMEM/F-12 with 5% FBS; for the DMSO control an equivalent volume of DMSO was used instead of the compound stock), and immediately re-plated on poly-D-lysine pre-treated 24-well plates at 1-10^5 cells/well and incubated as above. After 24 hours, total RNA was isolated and the target gene transcription assay (qPCR) was performed as described above. Nurr1 siRNA N1 were purchased from Sigma (Cat No. SASI_Mm02_00322368), and the sequences were as follows: 5′-GAA UCA GCU UUC UUA GAA U[dT][dT]-3′ (SEQ ID NO:17) (sense) and 5′-AUU CUA AGA AAG CUG AUU C[dT][dT]-3′ (SEQ ID NO:18) (antisense). […]

T2 sequence (Q06219 whole entry): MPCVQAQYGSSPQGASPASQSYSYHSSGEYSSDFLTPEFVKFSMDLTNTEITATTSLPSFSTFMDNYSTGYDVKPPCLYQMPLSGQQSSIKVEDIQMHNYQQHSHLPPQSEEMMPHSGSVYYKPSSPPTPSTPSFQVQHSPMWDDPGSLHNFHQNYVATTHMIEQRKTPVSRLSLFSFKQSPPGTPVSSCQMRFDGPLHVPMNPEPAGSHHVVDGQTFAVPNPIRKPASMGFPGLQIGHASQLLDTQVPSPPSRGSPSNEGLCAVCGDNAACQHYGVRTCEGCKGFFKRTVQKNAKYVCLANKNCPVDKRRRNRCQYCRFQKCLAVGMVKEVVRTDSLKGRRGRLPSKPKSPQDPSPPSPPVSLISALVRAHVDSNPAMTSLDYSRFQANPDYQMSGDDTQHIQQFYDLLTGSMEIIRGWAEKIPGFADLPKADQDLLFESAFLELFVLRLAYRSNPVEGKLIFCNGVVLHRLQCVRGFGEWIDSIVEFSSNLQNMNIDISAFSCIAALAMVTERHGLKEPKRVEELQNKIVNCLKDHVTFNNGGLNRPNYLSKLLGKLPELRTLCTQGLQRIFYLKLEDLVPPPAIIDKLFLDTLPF
T1 sequence (P43354 360-595 limits assumed, change not shown): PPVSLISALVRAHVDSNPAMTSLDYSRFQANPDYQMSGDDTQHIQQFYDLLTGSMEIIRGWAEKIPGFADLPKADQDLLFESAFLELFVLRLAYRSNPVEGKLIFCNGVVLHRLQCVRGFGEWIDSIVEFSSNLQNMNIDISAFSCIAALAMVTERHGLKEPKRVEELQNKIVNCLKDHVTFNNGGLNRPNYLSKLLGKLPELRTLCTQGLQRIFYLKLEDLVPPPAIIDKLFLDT

## Clc1ccc2[nH]ccc2c1 [5-chloroindole]
[1]
  Luciferase production, Nurr1-LBD_Gal4-DBD reporter: stimulates production of luciferase; also recorded: stimulates the activity of Nurr1
[2]
  Nano-aggregation properties: minimal
[3]
  Luciferase production, full-length Nurr1 NBRE reporter: stimulates production of luciferase; also recorded: stimulates the activity of Nurr1
[4]
  Effect on expression of Th and Vmat2 with knockdown of Nurr1: significantly reduced in the presence of Nurr1 siRNA, but not control siRNA; also recorded: inhibited by siRNA specific for Nurr1

Source: patent US20230255934A1, “NURR1 RECEPTOR MODULATORS AND USES THEREOF” (The Regents of the University of California, priority 2020, published 2023)
